Reference: ChEMBL document CHEMBL1909046, “DrugMatrix in vitro pharmacology data”

What was measured:
[1] = target: cGMP-specific 3',5'-cyclic phosphodiesterase (Homo sapiens, UniProt O76074); experiment: DRUGMATRIX: Phosphodiesterase PDE5 enzyme inhibition (substrate: [3H]cGMP + cGMP); type: tissue-based; settings: platelet; Not Active = under 50% inhibition at 10 µM
Adenosine receptor A2a = Adenosine receptor A2a (Homo sapiens, UniProt P29274); experiment: DRUGMATRIX: Adenosine A2A radioligand binding (ligand: […]); type: cell membranes, Membrane; settings: hek293; Not Active = under 50% inhibition at 10 µM
[2] = DRUGMATRIX: Leukotriene, BLT (LTB4) radioligand binding (ligand: [3H]LTB4); type: cell membranes, Membrane; settings: u-937; Not Active = under 50% inhibition at 10 µM
[3] = DRUGMATRIX: Calcium Channel Type L, Phenylalkylamine radioligand binding (ligand: [3H] (-)-Desmethoxyverapamil (D-888)); type: cell membranes, Rattus norvegicus, Wistar, Brain, Membrane; settings: Not Active = under 50% inhibition at 10 µM
[4] = DRUGMATRIX: GABAA, Chloride Channel, TBOB radioligand binding (ligand: [3H] TBOB); type: cell membranes, Rattus norvegicus, Wistar, Cerebral cortex, Membrane; settings: Not Active = under 50% inhibition at 10 µM
[5] = target: T1, Muscarinic acetylcholine receptor M5 (Homo sapiens, UniProt P08912); type: cell membranes, CHO-K1, Membrane; also: in other assays of this panel Not Active means under 50% inhibition at 10 µM
T1 sequence (P08912 whole entry): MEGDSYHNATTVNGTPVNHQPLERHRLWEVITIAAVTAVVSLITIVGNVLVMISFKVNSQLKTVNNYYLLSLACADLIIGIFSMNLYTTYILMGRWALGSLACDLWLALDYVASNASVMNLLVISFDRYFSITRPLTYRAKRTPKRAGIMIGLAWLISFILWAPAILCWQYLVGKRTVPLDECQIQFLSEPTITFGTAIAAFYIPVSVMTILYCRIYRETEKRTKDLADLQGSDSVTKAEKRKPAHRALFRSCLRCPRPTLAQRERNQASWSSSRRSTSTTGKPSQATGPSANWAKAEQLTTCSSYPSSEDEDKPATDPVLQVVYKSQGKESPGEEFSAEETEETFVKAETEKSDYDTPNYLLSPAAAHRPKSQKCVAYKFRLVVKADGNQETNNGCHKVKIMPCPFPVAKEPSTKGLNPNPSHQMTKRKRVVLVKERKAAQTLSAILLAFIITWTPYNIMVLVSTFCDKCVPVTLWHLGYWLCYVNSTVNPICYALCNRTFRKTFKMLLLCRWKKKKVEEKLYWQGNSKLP

[6] = DRUGMATRIX: Potassium Channel [KATP] radioligand binding (ligand: [3H] Glyburide); type: cell membranes, Membrane; settings: hit-t15; Not Active = under 50% inhibition at 10 µM

Chain of Adenosine receptor A2a (P29274 whole entry): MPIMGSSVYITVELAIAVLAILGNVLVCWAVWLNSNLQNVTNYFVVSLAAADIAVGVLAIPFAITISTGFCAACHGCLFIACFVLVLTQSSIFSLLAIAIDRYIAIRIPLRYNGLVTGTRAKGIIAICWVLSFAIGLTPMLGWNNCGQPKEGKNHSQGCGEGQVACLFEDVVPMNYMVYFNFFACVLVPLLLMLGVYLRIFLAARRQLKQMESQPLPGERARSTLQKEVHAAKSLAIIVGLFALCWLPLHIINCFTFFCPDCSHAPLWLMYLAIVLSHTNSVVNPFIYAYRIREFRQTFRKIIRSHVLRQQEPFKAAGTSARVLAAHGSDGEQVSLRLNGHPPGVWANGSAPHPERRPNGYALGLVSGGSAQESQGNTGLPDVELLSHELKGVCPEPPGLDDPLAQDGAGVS

Row | Compound | IC50 [1] | IC50 (Adenosine receptor A2a) | IC50 [2] | Ki [2] | IC50 [3] | Ki [3] | IC50 [4] | Ki [4] | IC50 ([5]; cho-k1) | IC50 [6] | Ki [6] | IC50 ([3]; read-out: IC50) | Ki ([3]; read-out: Ki) | IC50 ([5]; read-out: IC50) | Ki ([5]; read-out: Ki)
1 | COc1cc2nc(N3CCN(C(=O)C4COc5ccccc5O4)CC3)nc(N)c2cc1OC (stereo not given) [DOXAZOSIN] | Not Active | Not Active | Not Active | Not Active | Not Active | Not Active | Not Active | Not Active | Not Active | Not Active | Not Active |  |  |  | 
2 | C[C@H]1c2cccc(O)c2C(=O)C2=C(O)[C@]3(O)C(=O)C(C(N)=O)=C(O)[C@@H](N(C)C)[C@@H]3[C@@H](O)[C@@H]21.O [DOXYCYCLINE] | Not Active | Not Active | Not Active | Not Active | Not Active | Not Active | Not Active | Not Active | Not Active | Not Active | Not Active |  |  |  | 
3 | O=C(CCCN1CC=C(n2c(=O)[nH]c3ccccc32)CC1)c1ccc(F)cc1 [DROPERIDOL] | Not Active | Not Active | Not Active | Not Active |  |  | Not Active | Not Active |  | Not Active | Not Active | 4.17 µM | 4.05 µM | 2.3 µM | 1.65 µM
4 | CC(C)[C@H]1C(=O)N2CCC[C@H]2[C@]2(O)O[C@](NC(=O)[C@@H]3C=C4c5cccc6[nH]cc(c56)C[C@H]4N(C)C3)(C(C)C)C(=O)N12 [ERGOCORNINE] | Not Active | Not Active | Not Active | Not Active | Not Active | Not Active | Not Active | Not Active | Not Active | Not Active | Not Active |  |  |  | 
5 | C[C@]12CC[C@@H]3c4ccc(O)cc4CC[C@H]3[C@@H]1CCC2=O [ESTRONE] | Not Active | Not Active | Not Active | Not Active | Not Active | Not Active | Not Active | Not Active | Not Active | Not Active | Not Active |  |  |  | 
6 | OC(Cn1cncn1)(Cn1cncn1)c1ccc(F)cc1F [FLUCONAZOLE] | Not Active | Not Active | Not Active | Not Active | Not Active | Not Active | Not Active | Not Active | Not Active | Not Active | Not Active |  |  |  | 
7 | CC(C)C(=O)Nc1ccc([N+](=O)[O-])c(C(F)(F)F)c1 [FLUTAMIDE] | Not Active | Not Active | Not Active | Not Active | Not Active | Not Active | Not Active | Not Active | Not Active | Not Active | Not Active |  |  |  | 
8 | N=C(N)NCCN1CCCCCCC1 [GUANETHIDINE] | Not Active | Not Active | Not Active | Not Active | Not Active | Not Active | Not Active | Not Active | Not Active | Not Active | Not Active |  |  |  | 
9 | CC1(C)O[C@@H]2C[C@H]3[C@@H]4CCC5=CC(=O)CC[C@]5(C)[C@@]4(F)[C@@H](O)C[C@]3(C)[C@]2(C(=O)CCl)O1 [HALCINONIDE] | Not Active | Not Active | Not Active | Not Active | Not Active | Not Active | Not Active | Not Active | Not Active | Not Active | Not Active |  |  |  | 
10 | O=c1[nH]c(=O)n([C@H]2C[C@H](O)[C@@H](CO)O2)cc1I [IDOXURIDINE] | Not Active | Not Active | Not Active | Not Active | Not Active | Not Active | Not Active | Not Active | Not Active | Not Active | Not Active |  |  |  | 
11 | CC1Cc2ccccc2N1NC(=O)c1ccc(Cl)c(S(N)(=O)=O)c1 (stereo not given) [INDAPAMIDE] | Not Active | Not Active | Not Active | Not Active | Not Active | Not Active | Not Active | Not Active | Not Active | Not Active | Not Active |  |  |  | 
12 | Nc1nc(N)nc(-c2cc(Cl)ccc2Cl)n1.O=C(O)/C=C\C(=O)O [IRSOGLADINE MALEATE] | Not Active | Not Active | Not Active | Not Active | Not Active | Not Active | Not Active | Not Active | Not Active | Not Active | Not Active |  |  |  | 
13 | CCC(C)n1ncn(-c2ccc(N3CCN(c4ccc(OCC5COC(Cn6cncn6)(c6ccc(Cl)cc6Cl)O5)cc4)CC3)cc2)c1=O (stereo not given) [ITRACONAZOLE] | Not Active | Not Active | Not Active | Not Active | Not Active | Not Active | Not Active | Not Active | Not Active | Not Active | Not Active |  |  |  | 
14 | CCCCN1CCCC[C@H]1C(=O)Nc1c(C)cccc1C [LEVOBUPIVACAINE] | Not Active | Not Active | Not Active | Not Active | Not Active | Not Active | Not Active | Not Active | Not Active | Not Active | Not Active |  |  |  | 
15 | CCCCc1nc(Cl)c(CO)n1Cc1ccc(-c2ccccc2-c2nnn[nH]2)cc1 [LOSARTAN] | Not Active | Not Active | Not Active | Not Active | Not Active | Not Active | Not Active | Not Active | Not Active | Not Active | Not Active |  |  |  | 
16 | Sc1ncnc2nc[nH]c12 [MERCAPTOPURINE ANHYDROUS] | Not Active | Not Active | Not Active | Not Active | Not Active | Not Active | Not Active | Not Active | Not Active | Not Active | Not Active |  |  |  | 
17 | C[C@](N)(Cc1ccc(O)c(O)c1)C(=O)O [METHYLDOPA] | Not Active | Not Active | Not Active | Not Active | Not Active | Not Active | Not Active | Not Active | Not Active | Not Active | Not Active |  |  |  | 
18 | C[C@]12CCC(=O)C=C1CC[C@@H]1[C@@H]2CC[C@@]2(C)[C@H]1CC[C@]2(C)O [METHYLTESTOSTERONE] | Not Active | Not Active | Not Active | Not Active | Not Active | Not Active | Not Active | Not Active | Not Active | Not Active | Not Active |  |  |  | 
19 | Cc1ccccc1N1C(=O)c2cc(S(N)(=O)=O)c(Cl)cc2NC1C (stereo not given) [METOLAZONE] | Not Active | Not Active | Not Active | Not Active | Not Active | Not Active | Not Active | Not Active | Not Active | Not Active | Not Active |  |  |  | 
